Measurements taken from patent US20230047825A1, “ANTIMICROBIAL PEPTIDES” (priority 2019, published 2023).
In brackets after ≈: the same amount, converted by molar mass. Where a SMILES comes first, the peptide text is derived from it.

Key:
[1] = system: panel of Gram-negative or Gram-positive pathogens; details: RPMI (5% FCS); Gram-negative isolates, all but the P. aeruginosa isolates
Procedure: MICs were determined on the same plates as the FICs to increase reproducibility.
Methods: The natural AMP (termed AMP1) was modified to produce synthetic variants, AMPs 1a, 2a, 2b, 3a and 3b. Minimum inhibitory concentrations (MICs) were determined using the microbroth dilution assay with Mueller Hinton broth (MHB) or RPMI (with 5% FBS) and stability in serum was tested by conducting MICs in MHB containing 10% FBS. Synergy experiments were performed following a checkerboard protocol. Cytotoxicity was tested against HEK293 and HeLa immortalised human cell-lines using the XTT viability stain and by quantifying haemolysis of human red blood cells. Patch clamp analysis was performed using the Port-a-Patch® automated patch-clamp system on DPhPE/DPhPG (model for a Gram-negative plasma membrane) or DPhPG (Gram-positive) model membranes challenged with peptide. The murine lung infection model was performed using the agar bead model with Staphylococcus aureus strain NCTC 13616 (EMRSA-15).

[2] = Maximum Tolerated Dose (MTD) assessment, IV TID q8h: mortality, body weight, clinical observations; assay type: in vivo, mouse; details: 5 mg/kg (IV, TID, q8h)
[3] = system: five S. aureus strains; details: Mueller Hinton Broth
Procedure: (§1) Two broth mediums were used, Mueller Hinton Broth and RPMI 1640+5% fetal bovine serum. Test substances were evaluated in 11-point titrations and performed in duplicate.
(§2) The direct colony suspension method was used to prepare inoculated broth. Isolated colonies were taken from an 18-24 h culture plate. Optical density measurements (OD620nm) were used to estimate the bacterial density. […] The stock solutions were diluted by 2-fold serial titrations with their respective vehicles for a total of 11 concentrations.
(§3) A 4 μL aliquot of each dilution was added to 196 μL of broth medium seeded with the organism in wells of a sterilized 96 well polypropylene plate (Nunc™ 249949) using aluminum foil as cover. The final bacterial count was 2 to 8×10^5 CFU/mL. […] The final test article concentration range was 32 to 0.0313 μg/mL.
(§4) Each test substance dilution was evaluated in duplicate on one test occasion. […] Plates were incubated at 35-37° C. for 18 h. The test plates were visually examined and each well was visually scored for growth or complete inhibition of growth. The MIC value was recorded.

[4] = system: Staphylococcus aureus VRS-2 (VanA, VRSA); assay: microbe, parasite or virus in culture; details: VRS-2 (VanA)
Procedure: (§5) The S. aureus strains ATCC 29213, ATCC 19636, ATCC 33591 (MRSA), BAA-1556 (MRSA USA 300) were obtained from the American Type Culture Collection (ATCC). […] The species identity was confirmed with 16S rRNA analysis.
as §1, §2, §3, §4

[5] = system: Staphylococcus aureus ATCC BAA-1556 (USA300, MRSA); assay: microbe, parasite or virus in culture; details: ATCC BAA-1556
Procedure: as §5, §1, §2, §3, §4

[6] = system: Staphylococcus aureus ATCC 33591 (MRSA); assay: microbe, parasite or virus in culture; details: ATCC 33591
Procedure: as §5, §1, §2, §3, §4

[7] = system: Staphylococcus aureus ATCC 29213; assay: microbe, parasite or virus in culture; details: ATCC 29213
Procedure: as §5, §1, §2, §3, §4

[8] = system: Staphylococcus aureus ATCC 19636 (Smith); assay: microbe, parasite or virus in culture; details: ATCC 19636
Procedure: as §5, §1, §2, §3, §4

Q: With `CC(C)C[C@@H](NC(=O)[C@@H](Cc1ccc(O)cc1)NC(=O)[C@@H](Cc1c[nH]cn1)NC(=O)[C@H](NC(=O)[C@@H](CC(C)C)NC(=O)[C@@H](C)NC(=O)[C@@H](C)NC(=O)[C@@H](CCCNC(=N)N)NC(=O)CNC(=O)[C@H](NC(=O)[C@@H](Cc1c[nH]cn1)NC(=O)[C@@H](CCCNC(=N)N)NC(=O)CNC(=O)[C@H](NC(=O)[C@@H](Cc1c[nH]cn1)NC(=O)[C@@H](C)NC(=O)[C@@H](C)NC(=O)[C@@H](CCCNC(=N)N)NC(=O)[C@@H](CCCNC(=N)N)NC(=O)[C@@H](Cc1ccccc1)NC(=O)[C@@H](Cc1ccccc1)NC(=O)[C@@H](CO)NC(=O)CNC(=O)[C@@H](Cc1c[nH]c2ccccc12)NC(=O)CN)C(C)C)C(C)C)[C@H](C)O)C(N)=O` [D-pleurocidin-KR] (HELM PEPTIDE1{G.[dW].G.[dS].[dF].[dF].[dR].[dR].[dA].[dA].[dH].[dV].G.[dR].[dH].[dV].G.[dR].[dA].[dA].[dL].[dT].[dH].[dY].[dL].[am]}$$$$V2.0; N-terminus assumed) as the molecule, how does the “effective concentration (MIC) in RPMI” value [1] read?
A: ≤ 4 µg/mL

Q: What about the tolerability [2] of the same molecule?
A: tolerated

Q: And the “MIC against the five tested S. aureus strains” value [3]?
A: 2 µg/mL (≈ 0.709 µM)

Q: And the MIC [4]?
A: 2 µg/mL (≈ 0.709 µM)

Q: What about the MIC [5] of the same molecule?
A: 2 µg/mL (≈ 0.709 µM)

Q: What about the MIC [6] of the same molecule?
A: 2 µg/mL (≈ 0.709 µM)

Q: What about the MIC [7] of the same molecule?
A: 2 µg/mL (≈ 0.709 µM)

Q: And the MIC [8]?
A: 2 µg/mL (≈ 0.709 µM)
